From a melting point compilation (Tetko et al.; mined from patent text by program, amines drawn as free bases though some values may be those of a salt)

Compound	melting point [°C]
O=C1Nc2ccc(F)cc2Nc2sc3ccccc3c21	249 to 250
[N-]=[N+]=NC1CC(n2cnc3c(N4CCCC4)nc(N)nc32)OC1CO (centres undefined)	180 to 183
N#CNC(=N)Nc1cc(Cl)cc(Cl)c1	196 to 198
CC1(C(=O)O)CCc2cc(O)ccc2O1 (centres undefined)	190 to 192
NC(=O)c1ccc(N2CCN(Cc3cn4cc(Cl)ccc4n3)CC2)c(F)c1	253 to 255
C[C@H]1[C@H](O[Si](C)(C)C(C)(C)C)[C@H](O)C(S(=O)(=O)c2ccccc2)=C[C@H](C)[C@H]1O[Si](C)(C)C(C)(C)C	81 to 83
Cc1c(NC(=O)c2ccc(CC(=O)CC(C)C)cc2)ccc2cc(CN3CCCC3)cnc12	153
CO[C@@]1(C)[C@@H](NC(=O)C(F)(F)F)CC(OC(=O)c2ccc([N+](=O)[O-])cc2)O[C@H]1C (some centres undefined)	180 to 181
CCCc1c(OCCCCCOc2ccc3cc(OCC(=O)O)ccc3c2CCC(=O)O)ccc2c1OCCC2=O	160 to 163
CNCC1Cc2cc(F)cc(-c3cccc(OC)c3OC)c2O1 (centres undefined)	85 to 89
CCN(CC)C(=O)Oc1ccc2ccccc2c1	51 to 53
CCOC(=O)C1=C(C#N)NC(C)=C(C(=O)OCCOCc2ccccc2)C1c1ccccc1[N+](=O)[O-] (centres undefined)	139 to 140
CCC12CCC3c4ccc(OC)cc4CCC3C1CCC2O (centres undefined)	126 to 130
Cc1nc(-c2ccc(C(F)(F)F)cc2)sc1CSc1ccc(OCC(=O)O)cc1	190
Nc1cc(=O)n(Cc2cccc(C(F)(F)F)c2)[nH]1	130
Cc1[nH]c2ccc(F)cc2c1CCCN1CCN(c2ccccc2)CC1	146 to 147
CC(C)Oc1cc(-n2c(=O)cc(C(F)(F)C(F)(F)F)[nH]c2=O)c(F)cc1Cl	141 to 143
COCCNC(=O)c1ccc(C(=O)NS(=O)(=O)c2ccc(CCNC(=O)CCC(C)C)cc2)cn1	154 to 157
Cc1cc2c(cc1-c1cc(-c3ccc(C(=O)O)cc3)ccc1-c1ccccc1)C(C)(C)CCC2(C)C	217
CC(N)Cn1ncc2ccc3oc(C(=O)NCC(C)O)cc3c21 (centres undefined)	190 to 191
O=C1c2ccccc2C(=O)N1Cc1cc2cc(Cl)cc(-c3ccccc3)c2o1	163 to 166
C[C@H]([C@](O)(Cn1cncn1)c1ccc(F)cc1F)S(=O)(=O)N1CCN(c2ccc(-n3cnn(CC(F)(F)F)c3=O)cc2)CC1	237 to 239
COC(=O)c1cc2ccc(OC)cc2c2c1C=CC(c1ccc(OC)cc1)(c1ccc(OC)cc1)O2	162 to 164

Compound	melting point [°C]
CC(=O)Oc1c(C)c2c(-c3ccc(C(C)C)cc3)coc2c2ccccc12	118 to 119
CS(=O)(=O)c1ccc(-c2nc(C(F)(F)F)nc(Cl)c2-c2ccc(S(=O)(=O)Cl)cc2)cc1	207 to 210
Cc1cc(SC2=C(O)CC(CCC(C)C)(C3CCCC3)OC2=O)c(C(C)(C)C)cc1CO (centres undefined)	74 to 77
O=c1cc(C(F)(F)F)[nH]c(=O)n1Cc1cc(Cl)cc(Cl)c1Cl	199 to 202
NS(=O)(=O)c1cccc(C(=O)C(F)(F)F)c1	88.4 to 89.1
COC(=O)c1ccc(NC(C)=O)c(NC(=O)COC(C)=O)c1	182 to 186
O=C(NCCN1CCC2(CC1)C(=O)NCN2c1ccccc1)c1ccco1	196
CCCCNc1nc(C)no1	62 to 65
Clc1cc(NCCc2c[nH]cn2)ccn1	164 to 165
CO/N=C(/C(N)=O)c1ccccc1COc1cc(C)ccc1C	122
CS(=O)(=O)OCc1cc(-c2ccc3c(c2)CCO3)nn(CC2CC2)c1=O	108 to 111
Cc1ccc(S(=O)(=O)Nc2nc(-c3ccc(OCc4ccccc4)c(OCc4ccccc4)c3)cs2)cc1	158 to 161
CCC(COS(C)(=O)=O)Nc1ccc(Cl)cc1[N+](=O)[O-] (centres undefined)	91 to 93
COc1cc(OC)c2c(=O)cc(C(C)(C)C(N)=O)oc2c1	217 to 219
c1cc(OC2CCNCC2)c2cn[nH]c2c1	162 to 165
CC1CCN(C=Nc2ccc3c(c2)C(=O)c2ccc(N=CN4CCC(C)CC4)cc2C3=O)CC1	229 to 233
OC1CSC(Oc2ccc(-c3cccnc3)cc2F)C(O)C1O (centres undefined)	207
CCCc1nc2c(N)nc3ccccc3c2n1OCC(N)=O	192 to 194
CCCN1CC(c2ccc(C)cc2)=C(c2ccc(S(C)(=O)=O)cc2)C1=O	156 to 158
Cc1ccc(S(N)(=O)=O)cc1Br	156
O=C(c1cc(Cl)ccc1Cl)c1ccccc1I	64 to 66
O=C(NCCN1CCOCC1)N1CCN2C(=O)OC(c3ccccc3)(c3ccccc3)C2C1 (centres undefined)	174 to 175
O=C(Nc1nc(O)cc(-c2ccccc2)n1)C(F)(F)F	166 to 168

Compound	melting point [°C]
CCCCc1nc(Cl)c(C(=O)O)n1Cc1ccc2oc(-c3ccccc3-c3nnn[nH]3)c(OC)c2c1	140 to 144
NS(=O)(=O)c1cc(Cl)c(Cl)c(Cl)c1	190 to 191
COc1ccc2c(c1)c1c3c(c(-c4ccccc4Cl)cc1n2CCC(=O)NS(=O)(=O)CCN(C)C)C(=O)NC3=O	208 to 213
CC(C=CC(=O)NCCCN1CCCCC1)=CCc1ccc(Cl)c(Cl)c1	50 to 60
Cc1nc(-n2ccc(OCc3ccc(C(F)(F)F)o3)cc2=O)sc1C(=O)NCc1cccnc1	240 to 242
N#CCOc1ccc(-c2cc(O)c(SCCc3ccccc3)c(=O)o2)cc1	157 to 159
OC1CSC(Oc2cccc(-c3cccnc3Cl)c2)C(O)C1O (centres undefined)	130
CCc1cn(C[C@@H](C)O)c2ccc(F)c(Cl)c12	87 to 88
ClC1=NC(Cl)(c2ccc(Cl)cc2)NC=N1 (centres undefined)	142 to 143
CCCc1c(C#N)ccc(NC(=NC#N)Nc2ccccc2Cl)c1O	159 to 160
O=C1NC(=O)C(=Cc2ccc3c(c2)CCC(Cc2ccc(OCc4ccccc4)cc2)O3)S1 (centres undefined)	245 to 250
C[C@@H]1CC[C@H](C(=O)O)Cc2onc(-c3ccc(Cl)cc3)c21 (relative stereo)	154 to 155
CCOC(=O)c1c(N(C(C)=O)C(C)=O)c2cccnc2n(CC)c1=O	133 to 135
COc1ccc(C(=O)Nc2c(Cl)cncc2Cl)c2c1oc1ccccc12	302
CC(C)(C)c1cc(N)n(-c2cccc(Oc3ccccc3)c2)n1	108 to 110
O=C1Nc2ccc([N+](=O)[O-])cc2C(=O)N2CCC[C@@H]12	259 to 261
CCn1cc(C=O)c(OCc2ccc(OCc3nc(-c4ccco4)oc3C)c(OC)c2)n1	103 to 104
O=C(O)Cn1c(=O)c(-c2ccccc2Cl)cc2cnc(NC3C4CN(Cc5ccccc5)CC43)nc21 (centres undefined)	159 to 163
COc1cccc2c3c(c(C)nc12)CCN3c1ccccc1C	182 to 183
N#Cc1ccc(Nc2ccncc2[N+](=O)[O-])cc1	210 to 211
NC(=O)NNC1=NC=Cc2ccccc2C1	188 to 189
CCOC(=O)C(C)c1ccc2oc(C(=O)c3ccc(Cl)cc3)nc2c1 (centres undefined)	66 to 67
CS(=O)(=O)Nc1ccc2ccccc2c1-c1c(P(c2ccccc2)c2ccccc2)ccc2ccccc12	109
